# pIC50: −log10 of the molar value.
# Molecular target: cAMP and cAMP-inhibited cGMP 3',5'-cyclic phosphodiesterase 10A (Homo sapiens, UniProt Q9Y233)
# Assay: PDE10A assay
# How it was run: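 Human PDE10A (2 ng/well) preincubated 15 min RT with compound in HEPES pH 7.5, 10 mM MgCl2, BSA, then reacted 15 min with 50 nM [3H]cGMP/cGMP substrate. Stopped with Y-Si SPA beads; bound radioactivity counted, IC50 from four-parameter logistic, pIC50 = −log10(IC50).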
row,pIC50,SMILES
1,7.92,"Cn1cc(-c2ccccc2)nc1C#Cc1ccc2nc(C(F)(F)F)cn2n1 [US10399985, Example 8]"
2,8.13,"Cc1cccc(-c2cn3c(n2)C[C@H](NC(=O)c2c(C(=O)N4CCC4)cnn2C)CC3)c1 [Roche-Dataset for PDE10A, Compound 141]"
3,9.05,"Cn1ncc(C(=O)N2CCC2)c1C(=O)Nc1ccn2nc(-c3cccc(OCCF)c3)nc2c1 [Roche-Dataset for PDE10A, Compound 76]"
4,9.02,"CNC(=O)c1cc(F)ccc1NC(=O)c1nc(C2CC2)cnc1Nc1cncnc1 [US8703768, 312]"
5,7.29,"CN(C)CCNC(=O)c1c(NC(=O)c2nc(C3CC3)cnc2Nc2cncnc2)cnn1C [US8703768, 313]"
6,8.40,"Cn1ncc(C(=O)N(CCO)CCO)c1C(=O)Nc1ccn2nc(-c3ccccc3)nc2c1 [Roche-Dataset for PDE10A, Compound 125]"
7,7.28,"O=C(NCc1cn(-c2ccccc2)cn1)c1nc(C2CC2)cnc1Nc1cncnc1 [Roche-Dataset for PDE10A, Compound 682]"
8,5.75,"COc1ccc(-c2nnc(NC(=O)c3nc(C4CC4)ccc3Nc3cncnc3)s2)cc1 [US8470820, 44]"
9,9.06,"CN(c1nc2cc(NC(=O)c3c(C(=O)N4CCC4)cnn3C)ccn2n1)C1CC1 [Roche-Dataset for PDE10A, Compound 450]"
10,6.37,"Cn1nc(N2CCCC2)nc1/C=C/c1nc(N2CCCC2)n(C)n1 [Roche-Dataset for PDE10A, Compound 429]"
11,8.60,"O=C(Nc1cc(-c2ccccn2)nn1CC(F)(F)F)c1nc(C2CC2)ccc1Nc1cncnc1 [US8470820, 22]"
12,5.10,"Cc1cncc(CCc2nc(N3CCCC3)nn2C)n1 [Roche-Dataset for PDE10A, Compound 989]"
13,7.28,"Cc1ccc(Nc2cncnc2)c(C(=O)Nc2ccn([C@]34C[C@H]5C[C@H](C[C@H](C5)C3)C4)n2)n1 [Roche-Dataset for PDE10A, Compound 610]"
14,6.88,"CN(C)c1cc(C(=O)Nc2ccn3nc(-c4ccccc4)nc3c2)cc(Cl)n1 [Roche-Dataset for PDE10A, Compound 167]"
15,7.20,"CN(C)C(=O)c1nn(C)cc1C(=O)Nc1ccn2cc(-c3ccccc3)nc2n1 [Roche-Dataset for PDE10A, Compound 409]"
16,5.98,"O=C(NCc1cc(F)cc(F)c1)c1nc(C2CC2)cnc1Nc1cncnc1 [Roche-Dataset for PDE10A, Compound 783]"
17,8.37,"Cc1ccc2nc(OCc3nc(-c4ccccc4)cn3C)c(Cl)nc2c1 [Roche-Dataset for PDE10A, Compound 463]"
18,5.18,"Cc1ncc(C)n2nc(/C=C/c3nc(Br)cn3C3CC3)nc12 [Roche-Dataset for PDE10A, Compound 964]"
19,5.09,"Cc1ccc(Nc2cncc(O)n2)c(C(=O)Nc2ccn(C)n2)n1 [Roche-Dataset for PDE10A, Compound 940]"
20,6.07,"Cn1ncc(C(=O)N2CCC2)c1C(=O)Nc1cc(C2CCC2)n(C2CCCC2)n1 [Roche-Dataset for PDE10A, Compound 1088]"
21,6.56,"Cc1cc(C)n2nc(CCc3nc4c(Cl)cc(Cl)c(C)n4n3)nc2n1 [Roche-Dataset for PDE10A, Compound 1073]"
22,6.17,"CN(C)C(=O)c1cc(NC(=O)c2nc(C3CC3)ccc2Nc2cncnc2)nn1C [Roche-Dataset for PDE10A, Compound 1005]"
23,8.09,"Cc1cc(C)n2nc(CCc3nc(N4CCCC4)nn3C3CC3)nc2n1 [Roche-Dataset for PDE10A, Compound 475]"
24,9.10,"COCCN(C)C(=O)c1cnn(C)c1C(=O)Nc1cc2nc(-c3ccccc3)nn2cn1 [Roche-Dataset for PDE10A, Compound 304]"

row,pIC50,SMILES
1,6.44,"O=C(N[C@H]1CCN(c2ccccn2)C1)c1nc(C2CC2)ccc1Nc1cncnc1 [Roche-Dataset for PDE10A, Compound 1052]"
2,8.09,"Cn1ncc(C(=O)N2CCC2)c1C(=O)Nc1ccc2cc(-c3ccccc3)nn2n1 [Roche-Dataset for PDE10A, Compound 1133]"
3,8.10,"CN(C(=O)c1cnn(C)c1C(=O)N[C@@H]1CCn2cc(-c3ccccc3OC(F)F)nc2C1)C1CC1 [Roche-Dataset for PDE10A, Compound 192]"
4,8.49,"Cn1nc(-c2ccccn2)cc1NC(=O)c1nc(C2CC2)ccc1Nc1cncnc1 [US8470820, 8]"
5,5.97,"O=C(Nc1ccncc1C(F)(F)F)c1ccc2cc(-c3ccccc3)nn2c1 [Roche-Dataset for PDE10A, Compound 367]"
6,6.85,"Cc1ncc(O)c2nc(CCc3nc(N4CCCC4)nn3C)nn12 [Roche-Dataset for PDE10A, Compound 705]"
7,7.47,"Cc1c(C(F)(F)F)nc2ccc(OCc3nc(-c4ccccc4)cn3C)nn12 [US10399985, Example 36]"
8,7.01,"CN(C)C(=O)Cc1cccc(NC(=O)c2nc(C3CC3)cnc2Nc2cncnc2)c1 [Roche-Dataset for PDE10A, Compound 693]"
9,5.00,"Cn1nc(-c2ccccn2)cc1NC(=O)c1cccc2c1OCCO2 [Roche-Dataset for PDE10A, Compound 655]"
10,6.57,"Cn1cc(-c2ccccc2)nc1COc1cc(N2CCOCC2)nc(-c2cccnc2)n1 [Roche-Dataset for PDE10A, Compound 312]"
11,5.69,"Cc1cnc(C)n2nc(/C=C/c3nc(Br)nn3C)nc12 [Roche-Dataset for PDE10A, Compound 1128]"
12,8.12,"Cc1nc(C(F)(F)F)n2nc(CCc3nc(N4CCCC4)nn3C)nc2c1C [Roche-Dataset for PDE10A, Compound 432]"
13,6.11,"Cn1ncc(C(=O)N2CCC2)c1C(=O)Nc1ccn(-c2ccccn2)n1 [Roche-Dataset for PDE10A, Compound 1095]"
14,6.60,"O=C(NCCc1ccc(C(F)(F)F)cc1)c1nc(C2CC2)cnc1Nc1cncnc1 [Roche-Dataset for PDE10A, Compound 383]"
15,6.45,"CNC(=O)c1cc2[nH]c(-c3ccccc3)nc2cc1NC(=O)c1cc(C)n[nH]1 [Roche-Dataset for PDE10A, Compound 430]"
16,7.30,"Cn1cc(-c2ccccc2)nc1CCc1nc2c(cnn2C)c(=O)[nH]1 [Roche-Dataset for PDE10A, Compound 854]"
17,8.49,"CN(C)c1nc(CCc2nc(-c3ccccc3)cn2C)nc2ccc(Cl)cc12 [Roche-Dataset for PDE10A, Compound 55]"
18,8.34,"Cc1ncc(C)n2nc(CCc3nc(N4CCC[C@@H]4C)nn3C)nc12 [Roche-Dataset for PDE10A, Compound 269]"
19,7.17,"O=C(Nc1ccnc(C(=O)N2CCCCC2)c1)c1nc(C2CC2)cnc1Nc1cncnc1 [Roche-Dataset for PDE10A, Compound 730]"
20,7.72,"CC(=O)c1cccc(NC(=O)c2nc(C3CC3)cnc2Nc2cncnc2)c1 [Roche-Dataset for PDE10A, Compound 957]"
21,6.66,"Cn1cc(-c2ccccc2)nc1COc1ncc(C2CC2)nc1C(=O)NCC1CC1 [Roche-Dataset for PDE10A, Compound 191]"
22,6.53,"CC(C)(C)OCCCNC(=O)c1nc(C2CC2)cnc1Nc1cncnc1 [Roche-Dataset for PDE10A, Compound 968]"
23,5.88,"CCn1ccc(NC(=O)c2c(C(=O)N3CCC3)cnn2C)n1 [Roche-Dataset for PDE10A, Compound 1121]"
24,7.92,"Cc1ncc(C)n2nc(/C=C/c3nc(-c4cccn4C)nn3C)nc12 [Roche-Dataset for PDE10A, Compound 440]"
